Experiments:
differentiating ES cells = test: Apoptosis (TUNEL) in ceramide-depleted differentiating ES cells and its restoration by ceramide or analogs; type: cell-based, mouse; conditions: for reduction of the degree of apoptosis: EB8 and NP2 stage, 25 μM FB1 or 50 nM myriocin for 48 hours
Protocol: Fumonisin B1 (FB1) or myriocin-treated (ceramide-depleted) differentiating ES cells were incubated with natural ceramide. To prepare the natural ceramide, 50 mg of EBs or NPs were resuspended in 500 μl of water, and after phase separation with 500 μl of CHCl3/CH3OH (1:1 by vol.) the neutral lipids were recovered from the lower phase. The neutral lipids were evaporated to dryness with a gentle stream of nitrogen and redissolved in 1 ml of CHCl3. The solution was applied to a silicic acid gel column (0.5 g) and fatty acids and cholesterol washed out with another 15 ml of CHCl3 (Dasgupta and Hogan, 2001 J. Lipid Res., 42:301-308). The ceramide fraction was then eluted with 20 ml of CHCl3/acetone (9:1, by vol.), evaporated to dryness, and the residue (approximately 6 nmoles of ceramide) dissolved in 20 μl of ethanol containing 2% dodecane (vol./vol.). Aliquots of 5 μl were mixed with 1 ml of medium, yielding a final concentration of 1.5 μM natural ceramide for induction of apoptosis (Ji et al., 1995 FEBS Lett., 358:211-214).
Differentiating ES cells at the EB8 cells were dissociated and grown for 24 hours on laminin/ornithin-coated cover slips (NP1 stage) in DMEM/F12 (50/50), supplemented with 1×N2 and 20 ng/ml FGF-2. Cells were incubated for 3 hours with 10 μM bromodeoxyuridine (BrdU) and the TUNEL assay or immunostainings performed after 5 hours of incubation. For immunostaining, cells were fixed with 4% paraformaldehyde in phosphate-buffered saline (PBS). Fixed cells were permeabilized with 0.2% Triton X-100 in PBS for 5 minutes at room temperature and immunostaining performed as described previously (Bieberich et al., 2001 J. Biol. Chem., 276:44396-44404). The nuclei were stained by treatment with 2 μg/ml Hoechst 33258 in PBS for 30 minutes at room temperature. Apoptotic nuclei were stained using the fluorescein FragEL TUNEL assay according to instructions of the manufacturer (Oncogene).
The degree of apoptosis in differentiating ES cultures was determined since it was previously proposed that ceramide elevation induces apoptosis in NPs (Bieberch et al., 2001 J. Biol. Chem., 276:44396-44404). […] Apoptosis was elevated at the EB8 stage ([…]), and was highest at the NP2 stage (35+/−5%). […] Apoptosis was restored by the addition of 30 μM N-acetyl sphingosine (C2-ceramide), 80 μM of the novel ceramide analog N-oleoyl serinol (S18), or 1 μM of natural ceramide that was extracted from differentiating ES cells.

[1] = system: differentiating ES cells (NPs), PAR-4; test: S18-induced apoptosis (TUNEL) in NPs after PAR-4 antisense knockdown or PAR-4-RFP overexpression; type: cell-based, mouse
Protocol: For construction of PAR-4-REP cDNA, RT-PCR was performed with the oligonucleotide primer pair sense 5′atggcgaccggcggctatcg3′ (SEQ ID NO:14) and antisense 5′ctaccttgtcagctgcccaacaac3′(SEQ ID NO:15), using the first strand cDNA generated from embryoid bodies (EB8 stage) as template for the amplification reaction. The primers were endowed with the restriction enzyme cleaving sites Eco47III (sense) and SaII (antisense) for ligation of the PAR-4 specific amplification product into the multiple cloning site of HcRFP, a vector that encodes a far-red shifted variant of red fluorescent protein (Clontech). Differentiating ES cells at the NP1 stage were transfected with the PAR-4-RFP construct using the lipofectamine 2000 procedure according to the manufacturer's instructions (Invitrogen). The transfected cells were incubated in DMEM F12 (50/50), supplemented with 1×N2 and 20 ng/ml FGF-2, and the TUNEL assay or immunostainings were performed after 48 hours of incubation and NP formation. For depletion of ceramide, differentiating ES cell were incubated with 25 μM fumonisin B1 or 50 nM myriocin 48 hours prior to transfection with the PAR-4-RFP vector, and the inhibitor maintained in the medium throughout the post-transfection period. For induction of apoptosis, the novel ceramide analog S18 (40-100 μM), N-acetyl sphingosine (C2-ceramide, 10-30 μM), or natural ceramide isolated from EBs (0.5-1.5 μM) was added 48 hours after transfection with the PAR-4-RFP cDNA, and the degree of apoptosis quantified after 15-20 hours using TUNEL assays with paraformaldehyde-fixed cells as described above.
(§1) Endogenous expression of PAR-4 was suppressed by transfection of differentiating ES cells at the NP1 stage with 2 nmoles (per well in 24 wells plate) of the morpholino-based antisense oligonucleotide 5′cgatagccgccggtcgccatgttcc3′(SEQ ID NO:16) (see Guo et al., 1998, Nature Med., 4:957-962; Guo et al., 2001 Brain Res, 903:13-25) following the instructions of the manufacturer (GeneTools) in 0.5 ml of serum-free DMEM/F-12, 1XN2 supplemented with 20 ng/ml FGF-2. For induction of apoptosis, the novel ceramide analog S18 (40-100), N-acetyl sphingosine (C2 ceramide, […], or natural ceramide isolated from EBs (0.5-1.5 μM) was added 48 hours after transfection with the anti-PAR-4 morpholino, and the degree of apoptosis quantified after 15-20 hours using TUNEL assays with paraformaldehyde-fixed cells as described above.

PAR-4 = PAR-4 immunoblot after transfection with PAR-4 antisense morpholino; type: cell-based, mouse; conditions: NPs transfected with 2 nmoles morpholino
Protocol: as §1
The amount of protein was determined following a modified Folin phenol reagent (Lowry) assay essentially as described in Wang and Smith (1975 Anal. Biochem., 63:414-417). Protein extracted with detergent was precipitated according to the Wessel and Fluegge method (Wessel and Flugge, 1984 Anal. Biochem, 138:141-143). SDS-PAGE was performed using the Laemmli method followed by immunoblotting (Laemmri, 1970 Nature, 227:680-685).

[2] = system: differentiating ES-J1 cells; test: Apoptosis (TUNEL staining, cell death) in differentiating mouse ES cells incubated with ceramide analogs; type: cell-based; conditions: 15 hours with 75 μM S16 or S18, or 35 μM C2-ceramide
Protocol: In vitro neural differentiation of mouse ES cells (ES-J1, ES-D3) followed a serum deprivation protocol as described previously (Hancock, et al., 2000 Biochem. Biophys. Res. Commun., 271: 418-421). The differentiation stages are outlined in FIG. 2. Briefly, ES cells were grown on gamma-irradiated feeder fibroblasts for four days in Knockout DMEM/15% Knockout serum replacement, supplemented with ESGRO (LIF; Chemicon; Cat No. ESG1106) at a concentration of 10^3 units/ml medium. ES cells were then grown for another four days on gelatin-coated bacterial culture dishes without a fibroblast feeder layer, and were then grown for three days in Knockout DMEM/15% heat-inactivated ES qualified Fetal Bovine Serum, supplemented with 10^3 units LIF per ml of medium. Upon trypsinization, ES cells were transferred to bacterial culture dishes without gelatin, and embryoid body (EB) formation was induced for four days in Knockout DMEM/10% heat-inactivated ES qualified FBS without LIF (EB4 stage). On the fifth day, floating and loosely attached EBs were rinsed off and transferred to tissue culture dishes. The EBs were allowed to attach to the tissue culture dish surface by incubation for another 24 hours in Knockout DMEM with 10% heat-inactivated ES qualified fetal bovine serum. Neural differentiation due to serum deprivation was induced by cultivation of the EBs for three days in DME/12 (50/50), supplemented with 1×N2 (Invitrogen/Life Technologies; Cat No. 17502, dilution of 1:100) but without serum (EB8 stage). Serum-deprived EBs were then trypsinized, plated on poly-L-ornithine/laminin-coated tissue culture dishes and grown for four days in DMEM/F12 (50/50), supplemented with N2 and 10 ng/ml FGF-2, but without serum. This incubation period is referred to as neuroprogenitor (NP) stage due to commitment of neuroepithelial precursor cells to neuroprogenitor cells, and/or due to the selective expansion of neural progenitor cells in the FGF-2 containing serum-free medium. These cells have committed during the EB stages and were expanded during the NP stage. NPs grown for 48 hours upon replating of trypsinized EBs were referred to as the NP2 stage. On the fifth day of NP formation, the medium was changed to Neurobasal (Invitrogen/Life Technologies; Cat No. 21103-049), with 5% heat-inactivated FBS, and the cells were incubated for another seven days. During this time, NPs fully differentiate to glial cells and neurons. Cells cultured for 24 hours or 96 hours upon changing the medium were referred to as the D1 or D4 stage, respectively.
ES cells were cultured and differentiated to the EB4, EB8, NP2, or D4 stage following the protocol as described above. The ceramide analog S18 was dissolved in ethanol at a concentration of 100 mM and then added to the cells at a final concentration of 75 μM in medium. The cells at the EB8 stage were incubated for 48 hours in the presence of the ceramide analog and were then transplanted into mouse brains.
Differentiating ES cells were grown on cover slips and fixed with 4% paraformaldehyde in phosphate-buffered saline (PBS). Fixed cells were permeabilized with 0.5% Triton X-100 in PBS for 5 minutes at room temperature and unspecific binding sites were saturated by incubation with 3% ovalbumin in PBS for 1 hour at 37° C. The cover slips were then incubated with 5 μg/ml primary antibody (anti-ceramide clone 15B4 mouse IgM, Alexis; anti-PAR-4 rabbit IgG, Santa Cruz; anti-PCNA rabbit IgG, Santa Cruz; anti-nestin clone 401 rat IgG, BD Pharmingen) in 0.1% ovalbumin/PBS, followed by incubation with the appropriate fluorescence-labeled secondary antibody (5 μg/ml Alexa 546 conjugated anti-mouse IgG, Molecular Probes; Alexa 488 conjugated anti-rabbit IgG, Molecular Probes, Cy3 conjugated anti-mouse IgM, Jackson) for 2 hours at 37° C. The nuclei were stained by treatment with 2 μg/ml Hoechst 33258 in PBS for 30 minutes at room temperature. […]

[3] = system: Mouse neuroblastoma (F-11) cells; test: Induction of apoptosis in mouse neuroblastoma cells (Hoechst 33258 staining); type: cell-based; conditions: 24 hours
Protocol: Mouse neuroblastoma (F-11) cells were incubated for 24 hours in 0.1, 0.2, 0.5, or 1.0 μM of laurylgallate (Aldrich). Apoptosis was determined by punctate staining of condensed nuclei with Hoechst 33258 (Sigma, […] medium for 30 minutes at room temperature).

In the case of CCCC[C@@H](C)[C@@H](OC(=O)C[C@@H](CC(=O)O)C(=O)O)[C@H](C[C@@H](C)C[C@H](O)CCCC[C@@H](O)C[C@H](O)[C@H](C)N)OC(=O)C[C@@H](CC(=O)O)C(=O)O [FB1, Fumonisin B1, reference compound], the “reduction of the degree of apoptosis” value (differentiating ES cells) is reported as “about 50%”.

For “PAR-4 specific antisense morpholino: morpholino-based antisense oligonucleotide 5′cgatagccgccggtcgccatgttcc3′ (SEQ ID NO:16) (antisense CGATAGCCGCCGGTCGCCATGTTCC; all phosphorodiamidate morpholino (PMO)) [reference compound]”, the S18-induced apoptosis ([1]; NPs transfected with PAR-4 specific antisense morpholino, then S18) was “less than 30%” and the “expression level of PAR-4 relative to untransfected cells” value (PAR-4) was “about 25%”.

For CCCCCCCCCCCCCCCC(=O)NC(CO)CO [S16, N-(2-hydroxy-1-(hydroxymethyl)ethyl)-palmitoylamide], the “number of TUNEL stained cells” value ([2]; EB8 stage) was 45±10% and the “number of TUNEL stained cells” value ([2]; NP2 stage) was 70±10%.

For LEHD-CHO [reference compound], the “effect of pre-incubation on apoptosis inducible with S18 or natural ceramide” value ([1]; differentiating ES cells, caspase 9 inhibitor pre-incubation) was “suppressed apoptosis”.

In the case of CCCCCCCCCCCCC/C=C/[C@@H](O)[C@H](CO)NC(C)=O [C2-ceramide, N-acetyl sphingosine, reference compound], the “number of TUNEL stained cells” value ([2]; EB8 stage) is reported as 45±10%, the “number of TUNEL stained cells” value ([2]; NP2 stage) is reported as 70±10% and the “dependence of apoptosis on PAR-4 expression” value (differentiating ES cells; FB1-treated cells at the NP2 stage) is reported as “only seen in cells that expressed PAR-4”. For the same compound, the “restoration of apoptosis in FB1-treated cells” value (differentiating ES cells; NP2 stage, 30 μM C2-ceramide, 80 μM S18, or 1 μM natural ceramide) was “restored”.

With CCCCCCCCCCCCOC(=O)c1cc(O)c(O)c(O)c1 [laurylgallate, n-dodecyl ester of 3,4,5-trihydroxybenzoic acid] the cells undergoing apoptosis ([3]; 0.5 μM laurylgallate) was 50% and the cells undergone apoptosis ([3]; 1.0 μM laurylgallate) was 100%.

CCCCCCC(=O)CCCCCC/C=C/C[C@@H](O)[C@H](O)[C@@](N)(CO)C(=O)O [myriocin, reference compound] was tested, and the “reduction of the degree of apoptosis” value (differentiating ES cells) was “about 50%”.
